Experiments:
[1] = tested on: Influenza A virus H3N2 (Hong Kong); experiment: Inhibition of infectivity / virus yield reduction in MDCK cells; assay type: cell-based; conditions: virus yield reduced by 1 log10, 3 days
Procedure: Table provides data for inhibition of infectivity of Influenza A virus H3N2 (Hong Kong) for NB-DNJ (UV-1), NN-DNJ (UV-2), N7-O-DNJ (UV-3), N9-DNJ (UV-4) and NAP-DNJ (UV-5).
Procedure. The compounds were screened for inhibition of generation of infectious virus was conducted on the UV compounds at concentrations up to 500 μM. The influenza virus, Influenza A H3N2, Brisbane/10/2007 strain was evaluated for virus inhibition. MDCK cells (Madin Darby canine kidney cell line) obtained from American Type Culture Collection (ATCC, Manassas, Va.). Cells were cultured in U1traMDCK, supplemented with 2 mM L-glutamine, 1 μg/ml TPCK-treated trypsin and 100 U/ml penicillin, 100 μg/ml streptomycin in cell culture treated 24-well flat bottom plates at 37° C. in a 5% CO2 incubator for 24 hr or until 80% confluent prior to assay. Cells were pretreated with compounds in a final concentration of 0.5% DMSO for 1 hr followed by addition of virus inoculums. Three wells per virus are saved for a virus-only control. Only medium is added in exchange for compound in these wells, and virus is added after the initial 1 hr incubation. Three days later virus containing supernatants were collected and effect on reduction of virus yield are tested by assaying frozen and thawed eluates from each well for virus titer by serial dilution onto monolayers of MDCK susceptible cells.

[2] = Iminosugar safety study in mice; assay type: in vivo, BALB/c and C57/B1/6 mice; conditions: for weight loss compared to vehicle only control: BALB/c and C57/B1/6 mice, oral 100 and 10 mg/kg twice a day for 7 days; for clinical signs: highest concentration (100 mg/kg twice a day, 7 days)
Procedure: Methods and Discussion: BALB/c and C57/B1/6 mice were given oral suspensions of UV-1, UV-4, UV-5, twice a day for seven days, in 100 ul per mouse at 100 and 10 mg/kg (2 mg and 0.2 mg/mouse, respectively) 8 hours apart for 7 days, and then monitored for weight loss and general health. […] The results of these experiments are in FIG. 6.

[3] = tested on: INFV A H1N1 (strain A/Texas); experiment: Second influenza in vivo study: survival after H1/N1 (Texas) virus challenge; set-up: species or system Balb/c mice; conditions: 100 mg/kg TID oral for 10 days, ~1 LD90
Procedure: UV-4 was administered to the treated mice as a free drug dissolved in acidic water by the oral route (intragastric via oral gavage—IG) 100 mg/kg, TID for 10 days. The control mice received water orally, TID, instead of UV-4. Balb/c mice were used both for the treated mice and the control mice. Each mouse was microchipped for individual identity.
Mice were infected with INFV A H1N1 (strain A/Texas) intranasally with ˜1 LD90.
Animals were monitored for 15 days. Animals were weighed once per day, and given health scores 2× per day. Animals displaying severe illness (as determined by 30% weight loss, extreme lethargy, ruffled coat, or paralysis) were euthanized. The endpoint was considered a death of the animal or a more than 30% weight loss.
The studied mice include the following groups (10 mice per group):
1) 1 hr pre-treatment. These mice received their first UV-4 dose 1 hr before being infected with INFV A H1N1 (strain A/Texas).
2) 24 hr post-treatment. These mice received their first UV-4 dose 24 hr after being infected with INFV A H1N1 (strain A/Texas).
3) 48 hr post treatment. These mice received their first UV-4 48 hr after being infected with INFV A H1N1 (strain A/Texas).
4) 96 hr post treatment. These mice received their first UV-4 96 hr after being infected with INFV A H1N1 (strain A/Texas).

[4] = tested on: INFV A H1N1 (strain A/Texas); experiment: Influenza in vivo study: survival of infected mice; set-up: species or system Balb/c mice; conditions: ~5 LD50 intranasal, monitored 15 days
Procedure: UV-4 was administered as a free drug dissolved in acidic water. The compound was given at 100 mg/kg and 10 mg/kg by the oral route (intragastric via oral gavage—IG) twice daily. Balb/c mice received the compound for 10 days. Mice were infected with INFV A H1N1 (strain A/Texas) intranasally with ˜5 LD50 30 minutes following the first iminosugar dose.
Animals were monitored for 15 days. Animals were weighed once per day, and given health scores 2X per day. Animals displaying severe illness (as determined by 30% weight loss, extreme lethargy, ruffled coat, or paralysis) were euthanized.

Q: For `CCCCN1C[C@H](O)[C@@H](O)[C@H](O)[C@H]1CO` [UV-1, N-Butyl deoxynojirimycin], which IC90 [1] is on record?
A: 20000 nM

Q: What about the “weight loss compared to vehicle only control” value [2] of the same compound?
A: did not show any significant signs of weight loss

Q: For `CCCCCCCCCN1C[C@H](O)[C@@H](O)[C@H](O)[C@H]1CO` [UV-2, N-Nonyl deoxynojirimycin], which IC90 [1] is on record?
A: 200 nM

Q: With `CCCOCCCCCCN1C[C@H](O)[C@@H](O)[C@H](O)[C@H]1CO` [UV-3, N-(7-Oxadecyl)deoxynojirimycin] as the compound, how does the IC90 [1] read?
A: 200 nM

Q: Which results are given for `COCCCCCCCCCN1C[C@H](O)[C@@H](O)[C@H](O)[C@H]1CO` [UV-4, N-(9-Methoxynonyl)deoxynojirimycin]?
A: IC90 [1]: 200 nM; survival ([3]; first dose 1 hr before infection): 100%; survival ([3]; first dose 24 hr after infection): 100%; survival ([3]; first dose 48 hr after infection): 90%; survival ([3]; first dose 96 hr after infection): 90%; survival rate ([4]; 10 mg/kg BID oral gavage for 10 days): 90%; survival rate ([4]; 100 mg/kg BID oral gavage for 10 days): 90%; weight loss compared to vehicle only control [2]: did not show any significant signs of weight loss

Q: Which IC90 [1] does the source give for `[N-]=[N+]=Nc1ccc(NCCCCCCN2C[C@H](O)[C@@H](O)[C@H](O)[C@H]2CO)c([N+](=O)[O-])c1` [UV-5, N-(N-{4′-azido-2′-nitrophenyl}-6-aminohexyl)deoxynojirimycin] here?
A: 200 nM

Q: And the “weight loss compared to vehicle only control” value [2]?
A: did not show any significant signs of weight loss

Q: What about the clinical signs ([2]; BALB/c mice) of the same compound?
A: signs of diarrhea, red urine, and a ruffled appearance

Q: What about the clinical signs ([2]; C57/B1/6 mice) of the same compound?
A: these same symptoms but without the ruffled look
